Read-outs that look alike come from different tables or passages of the source.
Target: T1, Syk (Homo sapiens, UniProt P43405)
T1 construct: purchased Carna Biosciences
Assay: Syk HTRF assay
Assay type: biochemical
How it was run: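 HTRF kinase assay in HEPES pH 7.6 buffer with MgCl2, DTT and Triton X100; start mix of 87.5 μM ATP and 80 nM biotinylated peptide, 1 h at room temperature. EDTA stop, then Eu-anti-phosphotyrosine/streptavidin-DyLight 647 detection, read as 665/615 nm emission ratio.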

[1] = IC50 activity level, read-out: Activity Level
[2] = activity levels A-D, read-out: Activity Level (IC50 in the Syk HTRF assay)
[3] = read-out: Activity Level (Syk HTRF assay IC50)

SMILES | IC50 [1] [nM] | IC50 [2] [nM] | IC50 [3] [nM]
CC1CNC(=O)CN1Cc1cccc2nc(Nc3ccc(C(F)(F)F)cc3)nn12 (centres unmarked) [Example 258, 5-methyl-4-((2-(4-(trifluoromethyl)phenylamino)-[1,2,4]triazolo[1,5-a]pyridin-5-yl)methyl)piperazin-2-one] | – | 500 to 1000 | –
Cc1cc(Nc2nc3cccc(CC4CCOCC4)n3n2)cc2c1cnn2C [Example 147, N-(1,4-dimethyl-1H-indazol-6-yl)-5-((tetrahydro-2H-pyran-4-yl)methyl)-[1,2,4]triazolo[1,5-a]pyridin-2-amine] | – | – | 0.005 to 250
CNCc1nc2ccc(-c3cccc4nc(Nc5ccccc5)nn34)cc2o1 [Example 424, 5-(2-((methylamino)methyl)benzo[d]oxazol-6-yl)-N-phenyl-[1,2,4]triazolo[1,5-a]pyridin-2-amine] | 500 to 1000 | – | –
Cc1n[nH]c2cc(Nc3nc4cccc(NC5CCOC5)n4n3)ccc12 (stereo in doubt) [Example 167, (R)-N^2-(3-methyl-1H-indazol-6-yl)-N^5-(tetrahydrofuran-3-yl)-[1,2,4]triazolo[1,5-a]pyridin-2,5-diamine] | – | – | 0.005 to 250
OC[C@H]1CCN(Cc2cccc3nc(Nc4ccc(C(F)(F)F)cc4)nn23)C1 [Example 324, (S)-(1-((2-(4-(trifluoromethyl)phenylamino)-[1,2,4]triazolo[1,5-a]pyridin-5-yl)methyl)pyrrolidin-3-yl)methanol] | – | 1000 to 10000 | –
COC[C@]1(O)CC[C@@H](Cc2cccc3nc(Nc4ccc(C(F)(F)F)cc4)nn23)CC1 [Example 187, cis-1-(methoxymethyl)-4-((2-(4-(trifluoromethyl)phenylamino)-[1,2,4]triazolo[1,5-a]pyridin-5-yl)methyl)cyclohexanol] | – | – | 500 to 1000
O=C1CN(Cc2cccc3nc(Nc4ccc(C(F)(F)F)cc4)nn23)CCN1 [Example 388, 4-((2-(4-(trifluoromethyl)phenylamino)-[1,2,4]-triazolo[1,5-a]pyridin-5-yl)methyl)piperazin-2-one] | – | 0.005 to 250 | –
NC(=O)[C@H]1CC[C@@H](Oc2cccc3nc(Nc4ccc(C(F)(F)F)cc4)nn23)CC1 [Example 344, cis-4-(2-(4-(trifluoromethyl)phenylamino)-[1,2,4]triazolo[1,5-a]pyridin-5-yloxy)cyclohexanecarboxamide] | – | 500 to 1000 | –
N[C@H]1CC[C@@H](Oc2cccc3nc(Nc4ccc(C(F)(F)F)cc4)nn23)CC1 [Example 423, cis-5-(4-aminocyclohexyloxy)-N-(4-(trifluoromethyl)phenyl)-[1,2,4]triazolo[1,5-a]pyridin-2-amine] | 500 to 1000 | – | –
CN(C)c1ccc(Nc2nc3cccc(-c4ccccc4)n3n2)cc1 [Example 94] | – | – | 0.005 to 250
O[C@H]1CC[C@@H](Nc2cccc3nc(Nc4cccc(F)c4)nn23)CC1 [Example 355, cis-4-(2-(3-fluorophenylamino)-[1,2,4]triazolo[1,5-a]pyridin-5-ylamino)cyclohexanol] | – | 0.005 to 250 | –
CNc1ccc(Nc2nc3cccc(N[C@H]4CC[C@@H](O)CC4)n3n2)cn1 [Example 295, cis-4-(2-(6-(methylamino)pyridin-3-ylamino)-[1,2,4]triazolo[1,5-a]pyridin-5-ylamino)cyclohexanol] | – | 0.005 to 250 | –
CC1(C)C(=O)Nc2cc(Nc3nc4cccc(OC5CCOC5)n4n3)ccc21 (stereo in doubt) [Example 134, (R)-3,3-dimethyl-6-(5-(tetrahydrofuran-3-yloxy)-[1,2,4]triazolo[1,5-a]pyridin-2-ylamino)indolin-2-one] | – | – | 0.005 to 250
OC1CCC[C@@H]1Nc1cccc2nc(Nc3ccc(C(F)(F)F)cc3)nn12 (stereo in doubt) [Example 374, (1S,2S)-2-(2-(4-(trifluoromethyl)phenylamino)-[1,2,4]triazolo[1,5-a]pyridin-5-ylamino)cyclopentanol] | – | 0.005 to 250 | –
CC1(C)C(=O)Nc2cc(Nc3nc4cccc(N[C@H]5CC[C@@H](O)CC5)n4n3)ccc21 [Example 202, cis-6-(5-(4-hydroxycyclohexylamino)-[1,2,4]triazolo[1,5-a]pyridin-2-ylamino)-3,3-dimethylindolin-2-one] | – | 0.005 to 250 | –
COCCn1nc(C)c2ccc(Nc3nc4cccc(N[C@H]5CC[C@@H](O)CC5)n4n3)cc21 [Example 194, cis-4-(2-(1-(2-methoxyethyl)-3-methyl-1H-indazol-6-ylamino)-[1,2,4]triazolo[1,5-a]pyridin-5-ylamino)cyclohexanol] | – | – | 250 to 500
CNC(=O)c1ccc(Nc2nc3cccc(NC4CCCC4)n3n2)cc1 [Example 400, 4-(5-(cyclopentylamino)-[1,2,4]triazolo[1,5-a]pyridin-2-ylamino)-N-methylbenzamide] | 0.005 to 250 | – | –
Cc1n[nH]c2cc(Nc3nc4cccc(CNCC(N)=O)n4n3)ccc12 [Example 186, 2-((2-(3-methyl-1H-indazol-6-ylamino)-[1,2,4]triazolo[1,5-a]pyridin-5-yl)methylamino)acetamide] | – | – | 0.005 to 250
O=C1NCCC1NCc1cccc2nc(Nc3ccc(C(F)(F)F)cc3)nn12 (racemic) [Example 207, (±)-3-((2-(4-(trifluoromethyl)phenylamino)-[1,2,4]triazolo[1,5-a]pyridin-5-yl)methylamino)pyrrolidin-2-one] | – | 1000 to 10000 | –
NC(=O)c1ccc(Nc2nc3cccc(N[C@H]4CC[C@@H](O)CC4)n3n2)cc1F [Example 347, cis-2-fluoro-4-(5-(4-hydroxycyclohexylamino)-[1,2,4]triazolo[1,5-a]pyridin-2-ylamino)benzamide] | – | 0.005 to 250 | –
O[C@H]1CC[C@@H](Nc2cccc3nc(Nc4ccccn4)nn23)CC1 [Example 349, cis-4-(2-(pyridin-2-ylamino)-[1,2,4]triazolo[1,5-a]pyridin-5-ylamino)cyclohexanol] | – | 1000 to 10000 | –
c1cncc(Nc2nc3cccc(NC4CCCNC4)n3n2)c1 (stereo in doubt) [Example 433, (S)-N^5-(piperidin-3-yl)-N^2-(pyridin-3-yl)-[1,2,4]triazolo[1,5-a]pyridin-2,5-diamine] | 0.005 to 250 | – | –
O=C1NCC[C@H]1NCc1cccc2nc(Nc3ccc(C(F)(F)F)cc3)nn12 [Example 205, (R)-3-((2-(4-(trifluoromethyl)phenylamino)-[1,2,4]triazolo[1,5-a]pyridin-5-yl)methylamino)pyrrolidin-2-one] | – | 1000 to 10000 | –

Now from value to compound:

IC50 [1] [nM] | IC50 [2] [nM] | IC50 [3] [nM] | SMILES
500 to 1000 | – | – | c1cc(CC2CCOCC2)n2nc(Nc3ccc(-c4nc[nH]n4)cc3)nc2c1 [Example 557, N-(4-(1H-1,2,4-triazolo-3-yl)phenyl)-5-((tetrahydro-2H-pyran-4-yl)methyl)-[1,2,4]triazolo[1,5-a]pyridin-2-amine]
– | – | 250 to 500 | CNC(=O)c1ccc(Nc2nc3cccc(-c4cccc(F)c4)n3n2)cc1 [compound 12, 4-(5-(3-fluorophenyl)-[1,2,4]triazolo[1,5-a]pyridin-2-ylamino)-N-methylbenzamide]
0.005 to 250 | – | – | c1cc(NC2CCCNC2)n2nc(Nc3ccc4cn[nH]c4c3)nc2c1 (stereo in doubt) [Example 464, (S)-N^2-(1H-indazol-6-yl)-N^5-(piperidin-3-yl)-[1,2,4]triazolo[1,5-a]pyridine-2,5-diamine]
250 to 500 | – | – | c1ccc(Nc2nc3cccc(N[C@H]4CCNC4)n3n2)cc1 [Example 475, (S)-N^2-phenyl-N^5-(pyrrolidin-3-yl)-[1,2,4]triazolo[1,5-a]pyridin-2,5-diamine]
– | – | 0.005 to 250 | c1ccc(-c2cccc3nc(Nc4ccc5c(c4)CNC5)nn23)cc1 [compound 53]
– | – | 0.005 to 250 | Cc1n[nH]c2ccc(Nc3nc4cccc(N[C@H]5CC[C@H](O)CC5)n4n3)cc12 [compound 127, trans-4-(2-(3-methyl-1H-indazol-5-ylamino)-[1,2,4]triazolo[1,5-a]pyridin-5-ylamino)cyclohexanol]
0.005 to 250 | – | – | c1ccc(Nc2nc3cccc(-c4ccc5nc[nH]c5c4)n3n2)cc1 [Example 514, 5-(1H-benzo[d]imidazol-6-yl)-N-phenyl-[1,2,4]triazolo[1,5-a]pyridin-2-amine]
– | – | 500 to 1000 | CNC(=O)c1ccc(Nc2nc3cccc(-c4cccc(O)c4)n3n2)c(OC)c1 [compound 15, 4-(5-(3-hydroxyphenyl)-[1,2,4]triazolo[1,5-a]pyridin-2-ylamino)-3-methoxy-N-methylbenzamide]
250 to 500 | – | – | NCCOc1cc(-c2cccc3nc(Nc4ccccc4)nn23)ccn1 [Example 444, 5-(2-(2-aminoethoxy)pyridin-4-yl)-N-phenyl-[1,2,4]triazolo[1,5-a]pyridin-2-amine]
500 to 1000 | – | – | FC(F)(F)c1ccc(Nc2nc3cccc(N[C@@H]4CCCNC4)n3n2)cc1 [Example 468, (R)-N^5-(piperidin-3-yl)-N^2-(4-(trifluoromethyl)phenyl)-[1,2,4]triazolo[1,5-a]pyridin-2,5-diamine]
0.005 to 250 | – | – | O[C@H]1CC[C@@H](Nc2cccc3nc(Nc4ccc(-c5nc[nH]n5)cc4)nn23)CC1 [Example 567, cis-4-(2-(4-(1H-1,2,4-triazol-3-yl)phenylamino)-[1,2,4]triazolo[1,5-a]pyrridin-5-ylamino)cyclohexanol]
– | – | 0.005 to 250 | O[C@H]1CC[C@@H](Nc2cccc3nc(Nc4cnc5cn[nH]c5c4)nn23)CC1 [compound 107]
0.005 to 250 | – | – | CC1(C)C(=O)Nc2cc(Nc3nc4cccc(CC5CCOC5)n4n3)ccc21 (single isomer, unassigned; enantiomer 2) [Example 558, 3,3-dimethyl-6-(5-((tetrahydrofuran-3-yl)methyl)-[1,2,4]triazolo[1,5-a]pyridin-2-ylamino)indolin-2-one (enantiomer 2)]
250 to 500 | – | – | Nc1n[nH]c2ccc(-c3cccc4nc(Nc5ccccc5)nn34)cc12 [Example 511, 5-(3-amino-1H-indazol-5-yl)-N-phenyl-[1,2,4]triazolo[1,5-a]pyridin-2-amine]
– | – | 0.005 to 250 | Cn1nnc2ccc(Nc3nc4cccc(-c5cccc(O)c5)n4n3)cc21 [compound 28, 3-(2-(1-methyl-1H-benzo[d][1,2,3]triazol-6-ylamino)-[1,2,4]triazolo[1,5-a]pyridin-5-yl)phenol]

Source: patent US8299056B2 (Signal Pharmaceuticals, LLC, priority 2008, dated 2012)
